Results on 15 compounds are retold here after US9512139B2, “Conformationally constrained, fully synthetic macrocyclic compounds” (POLYPHOR AG, priority 2009, dated 2016).

Bounds are passed on as bounds.

Data set [1] can be described thus: Metabolic stability assay, CD-1 mouse microsomes. The format is in vitro ADME. Particulars: CD-1, mouse, microsomes; for half-life at 10 µM: both sexes; for Metabolic Stability 60 min mouse [% remain.]: both, 1 h, 10 µM.
Data set [2] is described as follows: Metabolic stability assay, human microsomes. The format is in vitro ADME. As to conditions: human, microsomes; for half-life at 10 µM: both sexes; for Metabolic Stability 60 min hum [% remain.]: both, 1 h, 10 µM.
The target of data set [3] is T1, Prostaglandin F (FP) Receptor (Homo sapiens, UniProt P43088).
T1 construct: host or cells: Ca2+ optimized hematopoietic cell lines (rat)
Kind of data set: Ca2+ assay (FLIPR) for the GPCR prostaglandin F (FP) receptor, agonist and antagonist mode. The format is cell-based. The protocol:
Biological and Pharmacological Methods 1. Ca^2+ Assays for the GPCRs Motilin Receptor, Prostaglandin F (FP) Receptor, 5-hydroxytryptamine 2B (5-HT2B) Receptor, and Purinoreceptor P2Y1
Assays were performed using on a FLIPR^TETRA fluorometric imaging plate reader (Molecular Devices) with ScreenWorks Version 2 (Molecular Devices) as device operating and data analysis software.
Dose dependent agonist and antagonist activities were determined. Percentage activation and percentage inhibition values were determined.
Percentage activation was determined upon initial addition of the sample compounds followed by 10 minutes incubation at 25° C. Following compound incubation, reference agonists were added at EC80 to determine percentage inhibition.
Reference agonists were purchased from reputable commercial vendors and prepared according to each ligand's specifications. All handling of ligands were done to ensure proper control throughout the experiments.
Example compounds were weighed on a Microbalance (Mettler MX5) and dissolved in 100% DMSO to a final concentration of 2.5 mM and subsequently diluted into the assay buffer.
The Assay buffer was a supplemented HBSS (Hank's Balanced Salt Solution). HBSS was supplemented with 20 mM HEPES (4-(2-hydroxyethyl)-piperazin-1-ethansulfonic acid) and 2.5 mM Probenecid (Sigma P8761).
GPCR assays were performed using Ca^2+ optimized hematopoietic cell lines (rat) with cultures never exceeding 90% confluency. Cells were harvested and seeded (from cultures at less than 90% confluency) at 50000 cells/well for a 96-well plate (12500 cells/well for 384). After seeding, the assay plates were incubated for forty-five (45) minutes at room temperature. After room temperature incubation, the assay plates were incubated at 37° C. 5% CO2 for 24 hours prior to assaying.
All GPCR assays were performed using Fluo-8 Ca^2+ dye. Ca^2+ dye was prepared at 1× dye concentration in GPCR assay buffer. After 24 hours of incubation, cells were washed with GPCR assay buffer, and then Ca^2+-dye (100 μL/well) was added.
The plates were incubated for 90 minutes at 30° C. 5% CO2 prior to FLIPR assay.
Compound plates were prepared to add 50 μL/well during the agonist assay mode. During the FLIPR assay, 50 μL/well from the compound plate was diluted 3-fold into the existing 100 μL/well from the dye loading step. Therefore all compounds were prepared as 3× the final concentration desired in the assay.
After completion of the first single addition assay run, assay plate was removed from the FLIPR Tetra and placed at 25° C. for seven (7) minutes before antagonist assay.
Using the EC80 values determined during the agonist assay, all pre-incubated sample compound and reference antagonist (if applicable) wells were stimulated at the EC80 of the reference agonist. As reference ligands for the first three assays their obvious natural ligands motilin, prostaglandin F2α, and serotonin (5-HT, 5-Hydroxytryptamine) were used; and for the P2Y1 assay 2MeSATP (2-methyl-thio-adeno-sine 5′-triphosphate, i.e. (2R,3S,4R)-5-(6-amino-2-methylsulfanyl-purin-9-yl)-3,4-dihydroxy-tetrahydrofuran-2-yl]methyl (hydroxy-phosphonooxy-phosphoryl)hydrogen phosphate) was applied.
After the addition of the reference agonist fluorescence was monitored for 180 sec using FLIPR Tetra.
Data Analysis and Results:
From the FLIPR data, with negative control correction enabled, the maximum statistic for each well was exported and percentage activation relative to Emax control was calculated.

The next data set in a line: in vitro. The format is in vitro ADME, human. As to conditions: human, plasma, 10 µM.

T1 sequence (P43088 whole entry): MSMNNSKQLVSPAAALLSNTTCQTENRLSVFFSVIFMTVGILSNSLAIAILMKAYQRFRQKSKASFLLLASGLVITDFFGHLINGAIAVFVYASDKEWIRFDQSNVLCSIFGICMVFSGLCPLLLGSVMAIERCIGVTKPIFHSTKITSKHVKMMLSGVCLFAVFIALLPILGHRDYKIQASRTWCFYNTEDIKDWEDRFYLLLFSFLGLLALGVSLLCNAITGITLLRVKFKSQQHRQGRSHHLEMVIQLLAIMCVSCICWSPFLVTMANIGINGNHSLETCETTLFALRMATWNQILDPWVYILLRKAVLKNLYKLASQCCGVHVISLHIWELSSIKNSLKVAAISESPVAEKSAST

Consider `CCCCCCCCCC(=O)N[C@H]1CN(C)C(=O)c2cccc(c2)OC[C@@H]2C[C@H](NC(=O)Cc3c[nH]c4ccccc34)CN2C(=O)CN(C)C1=O` [Ex. 213, N-[(4S,6S,13S)-6-{[2-(1H-indol-3-yl)acetyl]amino}-11,15-dimethyl-9,12,16-trioxo-2-oxa-8,11,15-triazatricyclo[15.3.1.0^4,8]henicosa-1(21),17,19-trien-13-yl]decanamide], for which, in data set [1], the half-life at 10 µM is 17 min and the “Metabolic Stability 60 min mouse [% remain.]” value is on record as 4 % remain. In data set [2], the half-life at 10 µM was 16 min and the “Metabolic Stability 60 min hum [% remain.]” value amounted to 0 % remain. In data set [3], the IC50 was 1700 nM and the inhibition at 10 µM is 78%.

With `CCCCCCCCCC(=O)N[C@H]1CCCN(C)C(=O)c2cccc(c2)OC[C@@H]2C[C@H](NC(=O)Nc3cccc(N(C)C)c3)CN2C1=O` [Ex. 511, N-[(4S,6S,10S)-6-({[3-(dimethylamino)anilino]carbonyl}amino)-14-methyl-9,15-dioxo-2-oxa-8,14-diazatricyclo[14.3.1.0^4,8]icosa-1(20),16,18-trien-10-yl]decanamide], in data set [1], the half-life at 10 µM came out at 14 min and the “Metabolic Stability 60 min mouse [% remain.]” value turned out to be 14 % remain. Besides, in data set [2], the half-life at 10 µM came out at 2 min and the “Metabolic Stability 60 min hum [% remain.]” value came out at 1 % remain. This compound also showed a Plasma Stability T½ [min] hum in the data set “in vitro” above 240 min. Also, in “in vitro” (4 h), the “Plasma Stability 240 min hum [% remain.]” value is listed as 100 % remain. For the same compound, in data set [3], the half-inhibitory concentration (IC50) is 59 nM and the inhibition at 10 µM stood at 99%.

With `CN1CCC[C@H](NC(=O)Cc2ccc3ccccc3c2)C(=O)N2C[C@@H](NC(=O)Cc3ccc4cccnc4c3)C[C@H]2COc2cccc(c2)C1=O` [Ex. 540, N-[(4S,6S,10S)-14-methyl-9,15-dioxo-6-{[2-(7-quinolinyl)acetyl]amino}-2-oxa-8,14-diazatricyclo[14.3.1.0^4,8]icosa-1(20),16,18-trien-10-yl]-2-(2-naphthyl)acetamide], in data set [3], 10 µM produced 43% inhibition.

In the case of `CN1CCC[C@H](NC(=O)Cc2ccc3ccccc3c2)C(=O)N2C[C@@H](NC(=O)Cc3cccc(Oc4ccccc4)c3)C[C@H]2COc2cccc(c2)C1=O` [Ex. 541, N-[(4S,6S,10S)-14-methyl-9,15-dioxo-6-{[2-(3-phenoxyphenyl)acetyl]amino}-2-oxa-8,14-diazatricyclo[14.3.1.0^4,8]icosa-1(20),16,18-trien-10-yl]-2-(2-naphthyl)acetamide], in data set [3], the inhibition at 10 µM was determined as 65%.

The compound `CCCCCCCCCC(=O)N[C@H]1C[C@H]2COc3cccc(c3)C(=O)N(C)CCC[C@H](NC(=O)Cc3ccc4ccccc4c3)C(=O)N2C1` [Ex. 542, N-[(4S,6S,10S)-14-methyl-10-{[2-(2-naphthyl)acetyl]amino}-9,15-dioxo-2-oxa-8,14-diazatricyclo[14.3.1.0^4,8]icosa-1(20),16,18-trien-6-yl]decanamide] yielded an inhibition at 10 µM in data set [3] of 74%.

Take `CCCCCCCCCC(=O)N[C@H]1C[C@H]2COc3cccc(c3)C(=O)N(C)CCC[C@H](NC(=O)Cc3cccc4ccccc34)C(=O)N2C1` [Ex. 543, N-[(4S,6S,10S)-14-methyl-10-{[2-(1-naphthyl)acetyl]amino}-9,15-dioxo-2-oxa-8,14-diazatricyclo[14.3.1.0^4,8]icosa-1(20),16,18-trien-6-yl]decanamide]: in data set [3], the inhibition at 10 µM was 82%.

In data set [3], `CCCCCC(=O)N[C@H]1C[C@H]2COc3cccc(c3)C(=O)N(C)CCC[C@H](NC(=O)Cc3cccc4ccccc34)C(=O)N2C1` [Ex. 544, N-[(4S,6S,10S)-14-methyl-10-{[2-(1-naphthyl)acetyl]amino}-9,15-dioxo-2-oxa-8,14-diazatricyclo[14.3.1.0^4,8]icosa-1(20),16,18-trien-6-yl]hexanamide] displayed an inhibition at 10 µM of 81%.

Take `CN1CCC[C@H](NC(=O)Cc2cccc3ccccc23)C(=O)N2C[C@@H](NC(=O)Cc3ccc(-c4ccccc4)cc3)C[C@H]2COc2cccc(c2)C1=O` [Ex. 545, 2-[1,1′-biphenyl]-4-yl-N-[(4S,6S,10S)-14-methyl-10-{[2-(1-naphthyl)acetyl]amino}-9,15-dioxo-2-oxa-8,14-diazatricyclo[14.3.1.0^4,8]icosa-1(20),16,18-trien-6-yl]acetamide]: testing at 10 µM in data set [3] gave an inhibition of 80%.

`CN1CCC[C@H](NC(=O)Cc2ccc(-c3ccccc3)cc2)C(=O)N2C[C@@H](NC(=O)C(c3ccccc3)c3ccccc3)C[C@H]2COc2cccc(c2)C1=O` [Ex. 546, N-[(4S,6S,10S)-10-[(2-[1,1′-biphenyl]-4-ylacetyl)amino]-14-methyl-9,15-dioxo-2-oxa-8,14-diazatricyclo[14.3.1.0^4,8]icosa-1(20),16,18-trien-6-yl]-2,2-diphenylacetamide] came in with an inhibition at 10 µM in data set [3] of 37%.

`CN1CCC[C@H](NC(=O)C(c2ccccc2)c2ccccc2)C(=O)N2C[C@@H](NC(=O)Cc3ccc(-c4ccccc4)cc3)C[C@H]2COc2cccc(c2)C1=O` [Ex. 547, N-[(4S,6S,10S)-6-[(2-[1,1′-biphenyl]-4-ylacetyl)amino]-14-methyl-9,15-dioxo-2-oxa-8,14-diazatricyclo[14.3.1.0^4,8]icosa-1(20),16,18-trien-10-yl]-2,2-diphenylacetamide] returned an inhibition at 10 µM in data set [3] of 47%.

With `CCCCCCCCCC(=O)N[C@H]1CCCN(C)C(=O)c2cccc(c2)OC[C@@H]2C[C@H](NC(=O)C(c3ccccc3)c3ccccc3)CN2C1=O` [Ex. 548, N-[(4S,6S,10S)-6-[(2,2-diphenylacetyl)amino]-14-methyl-9,15-dioxo-2-oxa-8,14-diazatricyclo[14.3.1.0^4,8]icosa-1(20),16,18-trien-10-yl]decanamide], the inhibition at 10 µM in data set [3] was 69%.

In data set [3], `CN1CCC[C@H](NC(=O)Cc2cccc3ccccc23)C(=O)N2C[C@@H](NC(=O)C(c3ccccc3)c3ccccc3)C[C@H]2COc2cccc(c2)C1=O` [Ex. 549, N-[(4S,6S,10S)-14-methyl-10-{[2-(1-naphthyl)acetyl]amino}-9,15-dioxo-2-oxa-8,14-diazatricyclo[14.3.1.0^4,8]icosa-1(20),16,18-trien-6-yl]-2,2-diphenylacetamide] displayed an inhibition at 10 µM of 62%.

In data set [3], `CCCCCCCCCC(=O)N[C@H]1CCCN(C)C(=O)c2cccc(c2)OC[C@@H]2C[C@H](NC(=O)CC(c3ccccc3)c3ccccc3)CN2C1=O` [Ex. 550, N-[(4S,6S,10S)-6-[(3,3-diphenylpropanoyl)amino]-14-methyl-9,15-dioxo-2-oxa-8,14-diazatricyclo[14.3.1.0^4,8]icosa-1(20),16,18-trien-10-yl]decanamide] yielded an inhibition at 10 µM of 73%.

In the case of `CN1CCC[C@H](NC(=O)Cc2ccc(-c3ccccc3)cc2)C(=O)N2C[C@@H](NC(=O)Cc3ccc(-c4ccccc4)cc3)C[C@H]2COc2cccc(c2)C1=O` [Ex. 551, 2-[1,1′-biphenyl]-4-yl-N-[(4S,6S,10S)-10-[(2-[1,1′-biphenyl]-4-ylacetyl)amino]-14-methyl-9,15-dioxo-2-oxa-8,14-diazatricyclo[14.3.1.0^4,8]icosa-1(20),16,18-trien-6-yl]acetamide], in data set [3], the inhibition at 10 µM is 72%.

For `CN1CCC[C@H](NC(=O)CC(C)(C)C)C(=O)N2C[C@@H](NC(=O)Nc3cccc(N(C)C)c3)C[C@H]2COc2cccc(c2)C1=O` [Ex. 552, N-[(4S,6S,10S)-6-({[3-(dimethylamino)anilino]carbonyl}amino)-14-methyl-9,15-dioxo-2-oxa-8,14-diazatricyclo[14.3.1.0^4,8]icosa-1(20),16,18-trien-10-yl]-3,3-dimethylbutanamide], at 10 µM the inhibition in data set [3] was 71%.
